# Active and inactive are the calls of the source. The rule behind the calls is not given here.
# Target: corticotropin-releasing factor-binding protein / CRF receptor 2 complex (human)
# Assay: CRF-BP/CRF-R2 complex antagonists, dose response, cell-based, uHTS hits, 384-well (AID 651639)
# Details: CRF-BP/CRF-R2 complex antagonism, cell-based 384-well
row,SMILES,IC50
1,Cc1ccc2nc(N3C(=O)C(O)=C(C(=O)c4ccco4)C3c3cccc(O)c3)sc2c1 (stereo not given),> 20 µM (inactive)
2,Cc1cc(=O)oc2c1ccc1oc(/C(=N/O)c3ccccc3)c(C)c12,> 20 µM (inactive)
3,COC(=O)c1ccc(/C(O)=C(\C#N)c2nc3ccccc3s2)cc1,> 20 µM (inactive)
4,Cc1ccc2nc(N3C(=O)C(O)=C(C(=O)c4ccc(C)o4)C3c3cccc(O)c3)sc2c1 (stereo not given),10.4 µM
5,N#C/C(=C(/O)COc1ccc(Cl)cc1)c1nc2ccccc2s1,> 20 µM (inactive)
6,COc1ccc(C(C)=NNc2ccc([N+](=O)[O-])cc2S(=O)(=O)Nc2ccccc2C(=O)O)c(OC)c1,9.4 µM
7,N#C/C(=C(/O)Cc1cccc2ccccc12)c1nc2ccccc2s1,11.3 µM
8,COc1ccc(/C=N/OCC(=O)N=Nc2c(O)[nH]c3ccc(Br)cc23)cc1,> 20 µM (inactive)
9,Cc1ccc(S(=O)(=O)N(CC(=O)N=Nc2c(O)[nH]c3ccccc23)c2ccc(C)c(C)c2)cc1,> 20 µM (inactive)
10,O=[N+]([O-])c1cc(/C=N\O)ccc1Oc1ccc(F)cc1,17.5 µM

# The next lines start with the values.
row,IC50,SMILES
1,> 20 µM (inactive),CN1c2ccccc2C(O)=C(C(=S)Nc2ccc(Cl)cc2)S1(=O)=O
2,1 µM,CN1C(=O)C(N=Nc2ccc([N+](=O)[O-])cc2)SC1=S (stereo not given)
3,> 20 µM (inactive),O=C1N=c2ccccc2=C1c1sc(=S)n(NC(=O)c2cccc(O)c2)c1O
4,15.5 µM,Cc1ccc(-n2[nH]c(C)c(/C=N/Nc3ccc([N+](=O)[O-])cc3[N+](=O)[O-])c2=O)cc1
5,> 20 µM (inactive),O=C(O)c1ccc(/C=N/Nc2cccc(C(F)(F)F)c2)cc1
